Assay in all cases: direct labeling of recombinantly expressed proteins by gel-based ABPP (WT vs lysine mutant)
Common to all, as to assay type: binding

One assay deals with T1, HDHD3 (Homo sapiens, UniProt Q9BSH5).
T1 construct: Flag; expressed in transfected cells; host or cells: HEK 293T
T1 sequence (Q9BSH5 1-251): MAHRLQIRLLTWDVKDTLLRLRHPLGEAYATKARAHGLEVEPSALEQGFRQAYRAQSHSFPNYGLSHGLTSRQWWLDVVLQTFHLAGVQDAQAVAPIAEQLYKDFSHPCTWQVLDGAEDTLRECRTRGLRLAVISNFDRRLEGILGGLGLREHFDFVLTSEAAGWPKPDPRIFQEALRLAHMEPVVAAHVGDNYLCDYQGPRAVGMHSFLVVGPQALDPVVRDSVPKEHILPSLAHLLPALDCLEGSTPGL
As to conditions: HDHD3 K15, KR mutant; 10 μM probe, 1 h. The source says:
(§1) Subcloning and mutagenesis. Unless noted below, genes were amplified from cDNA prepared from low passage HEK 293T cells using the Ribozol RNA extraction reagent (Amresco) and the iScript Reverse Transcription Supermix kit (Bio-Rad). For the following proteins cDNA clones were used for amplification instead: PFKP (5180268, Dharmacon), HK1 (BC008730, transomic), SIN3A (BC137098, transomic), G6PD (BC000337, transomic) and TGIF1 (BC031268, transomic). Mouse CARM1 in pFLAG-CMV-6c was a kind gift from the Mowen lab (TSRI). NUDT2 was obtained as synthesized gene (IDT). DNA was amplified with custom forward and reverse primers using phusion polymerase (NEB, M0530S), digested with the indicated restriction enzyme and ligated into pFLAG-CMV-6c or pRK5 with the appropriate affinity tag. Lysine mutants were generated using QuikChange site-directed mutagenesis using Phusion® High-Fidelity DNA Polymerase and primers containing the desired mutations and their respective complements. The cloning of TTR and its K35A mutant has been described in Choi et al., “Chemoselective small molecules that covalently modify one lysine in a non-enzyme protein in plasma,” Nat. Chem. Biol. 6, 133-139 (2010). TTR was expressed in E. coli and purified as described. For gel-based experiments 1 μM TTR was added into 1 mg ml^−1 soluble MDA-MB-231 lysate.
(§2) Recombinant expression of proteins by transient transfection. HEK 293T cells were grown to 50% confluency in 10 ml DMEM supplemented with 10% fetal bovine serum (FBS), penicillin, streptomycin and glutamine in 10 cm tissue culture dishes. 3 μg of DNA was diluted in 500 μL DMEM and 30 μL of PEI (MW 40,000, 1 mg ml^−1, Polysciences) were added. The mixture was incubated at room temperature for 30 min and added dropwise to the cells. Cells were grown for 48 h at 37° C. with 5% CO2. Cells were washed with cold PBS, scraped with cold PBS and cell pellets were isolated by centrifugation (1,400 g, 3 min, 4° C.), and stored at −80° C. until use. Cell pellets were resuspended in PBS, lysed by sonication and fractionated (100,000 g, 45 min) to yield soluble and membrane fractions. The soluble fraction was adjusted to a final protein concentration of 1 mg ml^−1 for gel-based ABPP experiments.
(§3) Direct labeling of recombinantly expressed proteins by gel-based ABPP. 50 μL of soluble HEK 293T proteome (1 mg ml^−1) expressing the respective protein (WT or KR mutant) or transfected with an empty vector were treated with 10 μM of the indicated probe for 1 h at room temperature. The samples were analyzed as described in the previous section. For quantification of relative labeling of the different protein variants, the intensity of labeling was determined by quantifying the integrated optical intensity of the bands using ImageLab 5.2.1 software (BioRad).

The next assay has as its target T2, PMVK (Homo sapiens, UniProt Q15126).
T2 construct: expressed in transfected cells; host or cells: HEK 293T
T2 sequence (Q15126 1-192): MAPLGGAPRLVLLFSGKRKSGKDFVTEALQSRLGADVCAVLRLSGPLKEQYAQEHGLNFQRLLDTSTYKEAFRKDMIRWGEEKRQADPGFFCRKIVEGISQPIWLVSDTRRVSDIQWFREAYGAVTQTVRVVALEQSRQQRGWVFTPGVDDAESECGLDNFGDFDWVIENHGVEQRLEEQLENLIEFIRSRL
The settings on record: PMVK K48, KR mutant; 10 μM probe, 1 h.
Source text: as §1, §2, §3

Another assay deals with T3, PFKP (Homo sapiens, UniProt Q01813).
T3 construct: Flag; expressed in transfected cells; host or cells: HEK 293T, transient transfection, soluble lysate; cDNA clone 5180268 (Dharmacon)
T3 sequence (Q01813 1-784): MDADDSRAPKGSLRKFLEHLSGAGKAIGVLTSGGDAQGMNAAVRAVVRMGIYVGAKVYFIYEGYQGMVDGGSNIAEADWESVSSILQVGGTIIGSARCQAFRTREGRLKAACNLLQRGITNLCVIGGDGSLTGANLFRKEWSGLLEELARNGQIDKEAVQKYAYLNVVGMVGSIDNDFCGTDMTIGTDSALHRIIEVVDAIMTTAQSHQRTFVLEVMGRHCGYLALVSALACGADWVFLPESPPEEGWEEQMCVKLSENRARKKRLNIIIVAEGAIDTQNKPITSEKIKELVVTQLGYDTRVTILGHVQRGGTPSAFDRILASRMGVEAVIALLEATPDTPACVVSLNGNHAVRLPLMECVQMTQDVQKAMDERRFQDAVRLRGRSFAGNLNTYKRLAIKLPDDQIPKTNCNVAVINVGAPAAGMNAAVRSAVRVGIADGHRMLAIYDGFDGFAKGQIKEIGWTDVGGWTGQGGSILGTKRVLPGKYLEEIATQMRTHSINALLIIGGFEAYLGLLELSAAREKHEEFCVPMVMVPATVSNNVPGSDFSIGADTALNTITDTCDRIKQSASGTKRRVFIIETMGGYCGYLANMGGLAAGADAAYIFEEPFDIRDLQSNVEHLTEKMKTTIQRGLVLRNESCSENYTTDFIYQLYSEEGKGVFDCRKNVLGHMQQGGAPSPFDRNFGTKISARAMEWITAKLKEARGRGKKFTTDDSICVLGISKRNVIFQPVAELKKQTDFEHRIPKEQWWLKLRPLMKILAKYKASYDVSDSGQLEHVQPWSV
As to conditions: PFKP K688, KR mutant; 10 μM probe, 1 h.
Source text: as §1, §2, §3

Each structure is given as a SMILES string.

Regarding `C#CCCC(=O)Oc1c(F)c(F)c(S(=O)(=O)[O-])c(F)c1F.[Na+]` [probe 1, reference compound], the “labeling of WT vs mutant protein by probe” value at HDHD3, on PMVK and on PFKP was “HD (the WT labeled more than the mutant (>4x difference quantified))” throughout.

Consider `C#CCCC(=O)Oc1c(F)c(F)c(F)c(F)c1F` [probe 6, Pentafluorophenyl 4-pentynoate], for which the “labeling of WT vs mutant protein by probe” value at HDHD3 is recorded as “HD (the WT labeled more than the mutant (>4x difference quantified))”; on PMVK it was “ND (the WT did not label more than the mutant (<2x difference quantified))”; on PFKP it was “HD (the WT labeled more than the mutant (>4x difference quantified))”.

`C#Cc1ccc(C(=O)Oc2ccccc2[N+](=O)[O-])cc1` [probe 10, 2-Nitrophenyl 4-ethynylbenzoate]: the “labeling of WT vs mutant protein by probe” value was “HD (the WT labeled more than the mutant (>4x difference quantified))” on HDHD3, “ND (the WT did not label more than the mutant (<2x difference quantified))” on PMVK and “HD (the WT labeled more than the mutant (>4x difference quantified))” on PFKP.

Regarding `C#Cc1ccc(C(=O)Oc2c(F)c(F)cc(F)c2F)cc1` [probe 12, 2,3,5,6-Tetrafluorophenyl 4-ethynylbenzoate], the entries for the “labeling of WT vs mutant protein by probe” value at HDHD3, at PMVK and on PFKP were “HD (the WT labeled more than the mutant (>4x difference quantified))”, “ND (the WT did not label more than the mutant (<2x difference quantified))” and “HD (the WT labeled more than the mutant (>4x difference quantified))”, respectively.

For the compound `C#Cc1ccc(C(=O)Oc2c(F)c(F)c(F)c(F)c2F)cc1` [probe 13, Pentafluorophenyl 4-ethynylbenzoate], the “labeling of WT vs mutant protein by probe” value on HDHD3 is “HD (the WT labeled more than the mutant (>4x difference quantified))”; at PMVK, “ND (the WT did not label more than the mutant (<2x difference quantified))”; at PFKP, “HD (the WT labeled more than the mutant (>4x difference quantified))”.

On to `Cc1cc(C)n2c1C=C1C=CC(CCC(=O)Oc3c(F)c(F)c(S(=O)(=O)[O-])c(F)c3F)=[N+]1[B-]2(F)F.[Na+]` [probe 18, reference compound], for which the “labeling of WT vs mutant protein by probe” value is “HD (the WT labeled more than the mutant (>4x difference quantified))” on HDHD3, “HD (the WT labeled more than the mutant (>4x difference quantified))” at PMVK and “PD (the WT labeled more than the mutant (>2x difference quantified))” on PFKP.

The record behind these values is patent US20210255193A1, “LYSINE REACTIVE PROBES AND USES THEREOF” (The Scripps Research Institute, priority 2017, published 2021).
